One molecule from patent publication US12240859B2, “Turbinmicin compounds, compositions and uses thereof” (Wisconsin Alumni Research Foundation, priority 2019, dated 2025) can be followed below.

The test system of one data set is C. albicans. Nature of the data set: In vitro MIC susceptibility testing, broth microdilution. The conditions noted are these: Candida albicans. Format: cell-based, Candida albicans. On the procedure: (§1) In vitro MIC susceptibility testing. […]. Amphotericin B was used as a positive control and the MICs range were 0.25-1.5 μg/mL. Six untreated media controls were included on each plate. The plates were incubated at 33° C. for 72 h. The MICs were determined as the lowest concentration that inhibited visible growth. The MICs were read at 24, 48, and 72 hours, respectively. […]
On the technique in general: Dilution methods test growth across graded concentrations, often in twofold steps.

The next data set concerns C. glabrata. The description is as above. Format: cell-based, Candida glabrata. On the procedure:
as §1

In another data set the test system is C. auris. Put plainly: Time kill experiments. Type of data set: cell-based, Candida auris. Conditions: C. auris (B11211, FIG. 6A), 1x to 16x MIC, 0-48 h. On the procedure: FIGS. 6A-C show time-kill curves for turbinmicin against (6A) C. auris B11211, (6B) C. albicans K-1, and (6C) C. glabrata 4720.
Time Kill Experiments. Fresh Candida colonies from an overnight growth were added to normal saline and the turbidity was adjusted to a 0.6 transmittance at 530 nm to provide a standard suspension (1*10^6 CFU/mL). This suspension was diluted with RPMI 1640 medium buffered with MOPS and a standard compound stock solution to achieve a starting inoculum of approximately 10^5 CFU/ml. Each 20 mL culture (RPMI 1640 medium buffered with MOPS) was incubated at 35° C. with constant shaking, and 0.1 mL samples were withdrawn for the determination of fungal counts at 0, 2, 4, 6, 8, 24 and 48 h. Colony counts were determined by viable counts on sabouraud agar plate (SDA) after incubation for 48 h. Growth control for each organism were prepared without antifungal and run in parallel.

The next data set has as its system A. fumigatus. Nature of the data set: Time kill experiments. Type of data set: cell-based, Aspergillus fumigatus. Conditions: A. fumigatus as printed in b90 (FIG. 6C), 0-48 h.
The nature of data set [1]: Solubility of turbinmicin in aqueous solvents. Format: physicochemical. An excerpt: In some embodiments, the pharmaceutical composition comprises turbinmicin and a pharmaceutically acceptable carrier comprising aqueous DMSO, e.g., DMSO in water, DMSO in 0.9% saline or DMSO in phosphate buffered saline (e.g., about 0.01 to about 0.1 molar Na/K phosphate buffer, about pH 7.4). In some embodiments the amount of DMSO in aqueous solution varies from at least about 1% by weight to about 80% by weight. […]. As turbinmicin had limited aqueous solubility, various solubilizing conditions (Table 4) were tested.

The subject of another data set is C. auris B11211. Nature of the data set: Neutropenic murine disseminated candidiasis model, C. auris B11211. Conditions: mice. Type of data set: in vivo, Candida auris. An excerpt:
Animals. Six-week-old ICR Swiss specific-pathogen-free female mice weighing 23 to 27 g were used for all studies. Animals were maintained in accordance with the American Association for Accreditation of Laboratory Care criteria. Animal studies were approved by the University of Wisconsin Animal Research Committee.
C. auris B11211 and C. albicans K1 Infection model. A neutropenic, murine, disseminated candidiasis model was used for the treatment studies. […]
C auris B11211 was subcultured on SDA 24 h prior to infection. […] Fungal counts of the inoculum determined by viable counts of C. auris on SDA were 6.25±0.03 log10 CFU ml^−1, respectively. […] Results were expressed as the mean number of CFU per kidney for three mice. […]
Disseminated infection with C. auris B11211 infection was produced by injection of 0.1 ml of the inoculum via the lateral tail vein 2 h prior to the start of antifungal therapy. […] The results are expressed as the mean and standard deviation of the log10 CFU/kidney from three mice. […]
Results. A multi-dose experiment with C. auris B11211 infection murine model was evaluated, and four doses (1, 2, 4, and 8 mg/kg) of turbinmicin were administered to mice every six hours over a 24 h period; turbinmicin was administered by intraperitoneal route.

Structures are written as SMILES. Values after ≈ are worked out from the molar mass of the structure shown. Like-named read-outs stand apart in the source and are kept apart here.

One may read the MIC as the smallest concentration in the dilution series that meets the test's criterion for growth inhibition. The low end stands for greater potency, the high end for weaker potency. For the molecule `C/C=C/C=C/C=C/C(=O)OC1C=CCC2C(=O)c3c(O)c4c5c(c3OC12)OCOC5CC1C(=O)c2cc(C)[nH]c(=O)c2C(=O)C41O` (centres unmarked) [Turbinmicin, turbinmicin], the MIC was 0.25 µg/mL (≈ 0.398 µM) against C. albicans (strain 98-17); 0.25 µg/mL (≈ 0.398 µM) against C. albicans (strain 98-210); 0.5 µg/mL (≈ 0.797 µM) with C. albicans (strain 580); 0.25 µg/mL (≈ 0.398 µM) against C. albicans (strain K1 (K-1)); 0.25 µg/mL (≈ 0.398 µM) against C. albicans (strain SN250); 0.5 µg/mL (≈ 0.797 µM) in the data set with C. glabrata (Nakaseomyces glabratus). Also, the MIC stood at 0.5 µg/mL (≈ 0.797 µM) against C. glabrata (strain 513); 0.5 µg/mL (≈ 0.797 µM) in the data set with C. glabrata (strain 729, Fks2_HS1_S663P); 0.5 µg/mL (≈ 0.797 µM) against C. glabrata (strain 5592); 0.5 µg/mL (≈ 0.797 µM) against C. glabrata (strain 14378, Fks1_HS1_S629P). The time-kill activity entry in the data set with C. auris and in the data set on A. fumigatus was “Fungacidal activity was observed” in each case. For the same molecule, the “Highest Turbmicin conc. Achieved” value is on record as at most 0.5 mg/mL in data set [1] (No. 2, DMSO (1% in PBS)); 2 mg/mL in data set [1] (No. 4, DMSO (10% in PBS)); at most 0.5 mg/mL in data set [1] (No. 5, PEG 400 (50% in PBS)); at most 0.5 mg/mL in data set [1] (No. 6, Kolliphor EL (10% in PBS)); at most 0.5 mg/mL in data set [1] (No. 7, Tween 80 (2% in PBS)). For the same molecule, the solubility was over 500 µg/mL in data set [1] (aqueous with cosolvent or surfactant or cyclodextrin, mixtures of DMSO and water, read-out: concentration solubilized); at most 500 µg/mL in data set [1] (pH 7.4, aqueous buffer, No. 1, PBS, read-out: Highest Turbmicin conc. Achieved); at most 1000 µg/mL in data set [1] (pH 7.4, aqueous with cosolvent or surfactant or cyclodextrin, No. 3, DMSO (5% in PBS), read-out: Highest Turbmicin conc. Achieved); under 500 µg/mL in data set [1] (water, read-out: water solubility). The CFU/kidney reduction with C. auris B11211 (multi-dose 1, 2, 4 and 8 mg/kg intraperitoneal every six hours over 24 h, at 24 h, dose-dependent) was over 3 log 10 CFU/kidney. For the same molecule, the “antifungal effect, single dose” value with C. auris B11211 (single intraperitoneal dose 8, 16, 32, 64 mg/kg, 6 h, data not shown) was “failed to reveal a significant antifungal effect”.
